Consider 16 compounds from PubChem BioAssay (NCI).

“And” between values parts separate entries of the source, which are not always exact repeats. Equal entries are not always repeated.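 Where inhibition never reached the appropriate level, the endpoint shown equals the highest concentration tested. Otherwise, values were interpolated linearly from a five-concentration, 48-hour dose response in 96-well plates. GI50 = concentration required for 50% inhibition of growth. TGI is the concentration that stops growth completely.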

Holding throughout (experiment): growth of human tumour cells (NCI), 48 h
The subject of experiment [1] is UACC-62 melanoma.
Experiment [2] has as its system EKVX NSCLC.
For experiment [3], the system named is NCI-H226 lung.
The subject of experiment [4] is MOLT-4 leukemia.
The subject of experiment [5] is NCI-H23 lung.
Experiment [6] concerns M14 melanoma.
In experiment [7] the test system is SNB-19 CNS.
The test system of experiment [8] is COLO 205 colon.
Experiment [9] relates to DU-145 prostate.

As for `COC(=O)c1c(C)cc2c(c1O)C1(O)C(=O)c3cc4c(c(O)c3C(=O)C1(OC)C(O)C2)C(=O)C=C(NC1OC(C)C(OC)C(O)C1OC)C4=O` (configuration not stated), the TGI in experiment [1] came out at 0.0502 µM; in [2] it was 0.864 µM; in experiment [3], 0.416 µM; in [4], 0.13 µM; in experiment [5], 0.0368 µM; in experiment [6] it was 0.262 µM. Moreover, the results for the TGI in experiment [7] and in experiment [8] were 1.22 µM and 0.186 µM, respectively.
As to `N#CCCN(CCC#N)c1ccc(/C=N\c2nc(-c3ccccc3)cs2)cc1`, the TGI in experiment [1], in experiment [2], in experiment [3], in experiment [4], in [5] and in experiment [6] was over 100 µM each time. The TGI in experiment [7] and in [8] was over 100 µM in each case.
In the case of `C/C=C(\CCC1NCCc2c1[nH]c1ccccc21)[Si](C)(C)C` (configuration not stated), the TGI in experiment [1] was 11.8 µM and 12.3 µM; in experiment [2], 28.6 µM and 22.1 µM; in experiment [3], 18.6 µM and 21.6 µM; in experiment [4], 13.8 µM and 8.98 µM; in experiment [5], 20.1 µM and 8.2 µM; in [6], 8.8 µM and 3.66 µM. Besides, the TGI in experiment [7] was 30 µM and 22 µM; in experiment [8], 27.5 µM and 3.26 µM; in experiment [9], 26.1 µM. Besides, the GI50 was 7.89 µM and 1.61 µM in [5]; 4.65 µM and 1.82 µM in experiment [6]; 15.4 µM and 7.22 µM in [7].
As for `Cn1cnc([N+](=O)[O-])c1SC1=NCCS1`, the TGI in experiment [1], in experiment [2], in experiment [3], in experiment [4], in experiment [5] and in experiment [6] was over 100 µM throughout. The TGI in experiment [7] and in experiment [8] was over 100 µM throughout.
Regarding `O=C(CC/C(CC(=O)c1ccc(Cl)cc1)=N/O)Nc1ccc(Cl)c(Cl)c1`, the TGI in experiment [1], in experiment [2], in [3], in experiment [4], in experiment [5] and in experiment [6] was over 100 µM each time. Moreover, the TGI in experiment [7] and in [8] was over 100 µM in each case.
In the case of `O=C1C2C(C(=O)N1c1ccccc1)C1(c3ccccc3)OC2(c2ccccc2)c2ccccc21` (configuration not stated), the TGI in [1], in [2], in [4], in experiment [5], in experiment [6] and in experiment [7] was over 100 µM in each case. In experiment [8], this compound had a TGI of over 100 µM.
As to `Cn1cnc([N+](=O)[O-])c1Sc1nc2cccnc2s1`, the TGI in experiment [1] was 32 µM; in [2], 33.8 µM; in [3] it was 36.5 µM; in experiment [4] it was 23.6 µM; in experiment [6], 26.8 µM; in experiment [7] it was over 100 µM. Besides, the TGI in experiment [8] was 22.7 µM.
As for `Oc1ccccc1Nc1nc2ccccc2c2occc12`, the GI50 is 10.3 µM in experiment [1]; 11.3 µM in [2]; 4.48 µM in experiment [5]; 11.6 µM in [6]; 7.22 µM in experiment [7]; 13.3 µM in experiment [8]. Also, the GI50 in experiment [9] is 9.66 µM. The TGI in experiment [1] amounted to 21.9 µM; in experiment [2] it was 26.2 µM; in experiment [5], 17.5 µM; in experiment [6] it was 23.8 µM; in experiment [7], 20.3 µM; in experiment [8] it was 26 µM. This compound showed a TGI in experiment [9] of 21.4 µM.
On to `Cc1cc(Cl)ccc1NC(=O)CC1SC(N)=NC1=O` (configuration not stated), for which the TGI in [1], in experiment [2], in [3], in [4], in experiment [5] and in [6] was over 100 µM each time. The TGI in experiment [7] and in experiment [8] was over 100 µM throughout.
In the case of `COCOCc1cc(OCc2ccccc2)c(OC)cc1Br`, the TGI in [1], in [2], in [5], in experiment [7] and in experiment [8] was over 100 µM throughout.
As to `Cc1ccc(NC(=O)COC(=O)c2cccc3c(=O)c4ccccc4[nH]c23)cc1`, the TGI in experiment [1] is over 100 µM; in [2], over 100 µM; in experiment [3], 96.7 µM; in experiment [4], over 100 µM; in experiment [5] it was 74.3 µM; in [6], over 100 µM. For the same compound, the TGI in [7] is over 100 µM; in [8] it was 77.9 µM.
On to `O=C(Nc1ccc([N+](=O)[O-])cc1C(=O)O)c1ccc([N+](=O)[O-])cc1`, for which the TGI in experiment [1] was over 100 µM; in experiment [2] it was over 100 µM; in experiment [3], 91.6 µM; in [4], 31.4 µM; in experiment [6] it was over 100 µM; in [7], over 100 µM.
As for `CC1C=CC(C)C2(O)C(=O)NC(O)C12` (configuration not stated), the TGI in experiment [1], in experiment [2], in [3], in experiment [4], in [6] and in experiment [7] was over 100 µM in each case. Moreover, the TGI in experiment [8] was over 100 µM.
Regarding `Cc1ccc([N+](=O)[O-])cc1NC(=O)C(=O)Cc1cc(=O)oc2cc(O)ccc12`, the TGI in experiment [1], in [2], in experiment [3], in experiment [4], in [5] and in [6] was over 100 µM in each case. In addition, the TGI in [7] and in [8] was over 100 µM each time.
Take `Cc1cc(NS(=O)(=O)c2ccc(NC(=O)c3cccc4cc5ccccc5nc34)cc2)no1`: the TGI was 48.5 µM in experiment [1]; 90.9 µM in [2]; 48.4 µM in experiment [4]; 39.3 µM in experiment [5]; 43 µM in experiment [6]; 19.3 µM in [7]. In [8], this compound returned a TGI of 53.4 µM.
For `CCC[CH2][Sn]1([CH2]CCC)[O]C(=O)c2cccc(OC)c2[O]1`, the GI50 was 0.312 µM in experiment [1]; 1.31 µM in experiment [2]; 1.63 µM in experiment [3]; 0.217 µM in experiment [4]; 0.265 µM in experiment [5]; 0.422 µM in experiment [6]. For the same compound, the GI50 in [7] is 0.799 µM; in experiment [8], 0.491 µM. The TGI in [1] came to 1.18 µM; in experiment [2], 2.7 µM; in experiment [3] it was 3.04 µM; in experiment [4], 1.36 µM; in experiment [5] it was 1.25 µM; in experiment [6] it was 1.56 µM. The TGI in experiment [7] was 2.13 µM; in experiment [8] it was 1.78 µM.
